Measurements as given in patent US7462600B2, “Macrolides” (Pfizer Inc, priority 2004, dated 2008).
Converted amounts (≈) assume the structure as drawn.

Tests used:
Assay type in all cases: cell-based
[1] = system: Streptococcus pyogenes 1079; assay: MIC, microtiter broth dilution (NCCLS M100-S14), S. pyogenes 1079 (ermB); settings: S. pyogenes 1079 (ermB)
Summary of the method: (§1)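 Minimum inhibitory concentration by broth microdilution in trays (NCCLS M100-S14); starting stocks 40 mg/ml, DMSO.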

[2] = system: Streptococcus pneumoniae 1016; assay: MIC, microtiter broth dilution (NCCLS M100-S14), S. pneumoniae 1016 (susceptible); settings: S. pneumoniae 1016 (susceptible)
Summary of the method: as §1

[3] = system: Streptococcus pneumoniae 1095; settings: S. pneumoniae 1095 (ermB); microtiter broth dilution
Summary of the method: as §1

[4] = system: Streptococcus pneumoniae 1175; settings: S. pneumoniae 1175 (mefA); microtiter broth dilution
Summary of the method: as §1

[5] = system: Haemophilus influenzae 1218; assay: MIC, microtiter broth dilution (NCCLS M100-S14), H. influenzae 1218 (susceptible); settings: H. influenzae 1218 (susceptible)
Summary of the method: as §1

| Compound | MIC S. pyogenes 1079 [1] | MIC S. pneumo. 1016 [2] | MIC S. pneumo. 1095 [3] | MIC S. pneumo. 1175 [4] | MIC H. influenzae 1218 [5] |
| --- | --- | --- | --- | --- | --- |
| CCC1OC(=O)C(C)C(=O)C(C)C(OC2OC(C)CC(N(C)C)C2O)C(C)(OC)CC(C)C(=O)C(C)C2N(CC3CCCN3C(=O)c3cccc4ccncc34)C(=O)OC12C (stereo not shown) [10.37] | 16 µg/mL (≈ 18.8 µM) | <0.06 µg/mL | <0.06 µg/mL | <0.06 µg/mL | 0.5 µg/mL (≈ 0.588 µM) |
| CCC1OC(=O)C(C)C(=O)C(C)C(OC2OC(C)CC(N(C)C)C2O)C(C)(OC)CC(C)C(=O)C(C)C2N(CC3CCCN3C(=O)c3cnc4ncccc4c3)C(=O)OC12C (stereo not shown) [10.38] | >64.00 µg/mL | <0.06 µg/mL | <0.06 µg/mL | 0.5 µg/mL (≈ 0.587 µM) | 1 µg/mL (≈ 1.17 µM) |
| CCC1OC(=O)C(C)C(=O)C(C)C(OC2OC(C)CC(N(C)C)C2O)C(C)(OC)CC(C)C(=O)C(C)C2N(CC3CCCN3C(=O)c3cc4cccnc4nc3C)C(=O)OC12C (stereo not shown) [10.39] | >64.00 µg/mL | <0.06 µg/mL | <0.06 µg/mL | 0.5 µg/mL (≈ 0.577 µM) | 2 µg/mL (≈ 2.31 µM) |
| CCC1OC(=O)C(C)C(=O)C(C)C(OC2OC(C)CC(N(C)C)C2O)C(C)(OC)CC(C)C(=O)C(C)C2N(CC3CCCN3C(=O)c3cc4cccnc4nc3C(F)(F)F)C(=O)OC12C (stereo not shown) [10.40] | >64.00 µg/mL | <0.06 µg/mL | <0.06 µg/mL | <0.06 µg/mL | 2 µg/mL (≈ 2.17 µM) |
| CCC1OC(=O)C(C)C(=O)C(C)C(OC2OC(C)CC(N(C)C)C2O)C(C)(OC)CC(C)C(=O)C(C)C2N(CC3CCCN3C(=O)c3cc4cnccc4nc3C)C(=O)OC12C (stereo not shown) [10.41] | >64.00 µg/mL | <0.06 µg/mL | <0.06 µg/mL | <0.06 µg/mL | 2 µg/mL (≈ 2.31 µM) |
| CCC1OC(=O)C(C)C(=O)C(C)C(OC2OC(C)CC(N(C)C)C2O)C(C)(OC)CC(C)C(=O)C(C)C2N(CC3CCCN3C(=O)c3cc4ncccc4[nH]3)C(=O)OC12C (stereo not shown) [10.42] | 64 µg/mL (≈ 76.2 µM) | <0.06 µg/mL | <0.06 µg/mL | <0.06 µg/mL | 0.5 µg/mL (≈ 0.595 µM) |
| CCC1OC(=O)C(C)C(=O)C(C)C(OC2OC(C)CC(N(C)C)C2O)C(C)(OC)CC(C)C(=O)C(C)C2N(CC3CCCN3C(=O)c3cn4cccnc4n3)C(=O)OC12C (stereo not shown) [10.43] | >64.00 µg/mL | <0.06 µg/mL | <0.06 µg/mL | 0.25 µg/mL (≈ 0.297 µM) | 1 µg/mL (≈ 1.19 µM) |
| CCC1OC(=O)C(C)C(=O)C(C)C(OC2OC(C)CC(N(C)C)C2O)C(C)(OC)CC(C)C(=O)C(C)C2N(CC3CCCN3C(=O)c3ccnc4ncsc34)C(=O)OC12C (stereo not shown) [10.44] | >64.00 µg/mL | <0.06 µg/mL | <0.06 µg/mL | 0.12 µg/mL (≈ 0.14 µM) | 1 µg/mL (≈ 1.17 µM) |
| CCC1OC(=O)C(C)C(=O)C(C)C(OC2OC(C)CC(N(C)C)C2O)C(C)(OC)CC(C)C(=O)C(C)C2N(CC3CCCN3C(=O)c3cnn4ccccc34)C(=O)OC12C (stereo not shown) [10.45] | >64.00 µg/mL | <0.06 µg/mL | <0.06 µg/mL | <0.06 µg/mL | 1 µg/mL (≈ 1.19 µM) |
| CCC1OC(=O)C(C)C(=O)C(C)C(OC2OC(C)CC(N(C)C)C2O)C(C)(OC)CC(C)C(=O)C(C)C2N(CC3CCCN3S(=O)(=O)c3cccc4cnccc34)C(=O)OC12C (stereo not shown) [10.46] | 64 µg/mL (≈ 72.1 µM) | <0.06 µg/mL | <0.06 µg/mL | <0.06 µg/mL | 1 µg/mL (≈ 1.13 µM) |
| CCC1OC(=O)C(C)C(=O)C(C)C(OC2OC(C)CC(N(C)C)C2O)C(C)(OC)CC(C)C(=O)C(C)C2N(CC3CCCN3S(=O)(=O)c3cccc4cccnc34)C(=O)OC12C (stereo not shown) [10.47] | 64 µg/mL (≈ 72.1 µM) | <0.06 µg/mL | 0.12 µg/mL (≈ 0.135 µM) | <0.06 µg/mL | 2 µg/mL (≈ 2.25 µM) |
| CCC1OC(=O)C(C)C(=O)C(C)C(OC2OC(C)CC(N(C)C)C2O)C(C)(OC)CC(C)C(=O)C(C)C2N(CC3CCCN3C(=O)c3ccc(C)[nH]c3=O)C(=O)OC12C (stereo not shown) [10.48] | >64.00 µg/mL | <0.06 µg/mL | 4 µg/mL (≈ 4.81 µM) | 0.5 µg/mL (≈ 0.602 µM) | 1 µg/mL (≈ 1.2 µM) |
| CCC1OC(=O)C(C)C(=O)C(C)C(OC2OC(C)CC(N(C)C)C2O)C(C)(OC)CC(C)C(=O)C(C)C2N(CC3CCCN3C(=O)c3ccc4cnccc4n3)C(=O)OC12C (stereo not shown) [10.49] | >64.00 µg/mL | <0.06 µg/mL | 2 µg/mL (≈ 2.35 µM) | 2 µg/mL (≈ 2.35 µM) | 8 µg/mL (≈ 9.39 µM) |
| CCC1OC(=O)C(C)C(=O)C(C)C(OC2OC(C)CC(N(C)C)C2O)C(C)(OC)CC(C)C(=O)C(C)C2N(CC3CCCN3C(=O)c3ccnc4[nH]cnc34)C(=O)OC12C (stereo not shown) [10.50] | >64.00 µg/mL | <0.06 µg/mL | 0.5 µg/mL (≈ 0.595 µM) | 2 µg/mL (≈ 2.38 µM) | 8 µg/mL (≈ 9.51 µM) |
| CCC1OC(=O)C(C)C(=O)C(C)C(OC2OC(C)CC(N(C)C)C2O)C(C)(OC)CC(C)C(=O)C(C)C2N(CC3CCCN3C(=O)c3cnn4cccnc34)C(=O)OC12C (stereo not shown) [10.51] | >64.00 µg/mL | <0.06 µg/mL | <0.06 µg/mL | 0.5 µg/mL (≈ 0.595 µM) | 1 µg/mL (≈ 1.19 µM) |
| CCC1OC(=O)C(C)C(=O)C(C)C(OC2OC(C)CC(N(C)C)C2O)C(C)(OC)CC(C)C(=O)C(C)C2N(CC3CCCN3C(=O)c3cccc4[nH]cnc34)C(=O)OC12C (stereo not shown) [10.52] | 64 µg/mL (≈ 76.2 µM) | <0.06 µg/mL | <0.06 µg/mL | <0.06 µg/mL | 0.25 µg/mL (≈ 0.298 µM) |
| CCC1OC(=O)C(C)C(=O)C(C)C(OC2OC(C)CC(N(C)C)C2O)C(C)(OC)CC(C)C(=O)C(C)C2N(CC3CCCN3C(=O)c3cc4ncccn4n3)C(=O)OC12C (stereo not shown) [10.53] | >64.00 µg/mL | <0.06 µg/mL | <0.06 µg/mL | 0.12 µg/mL (≈ 0.143 µM) | 1 µg/mL (≈ 1.19 µM) |
| CCC1OC(=O)C(C)C(=O)C(C)C(OC2OC(C)CC(N(C)C)C2O)C(C)(OC)CC(C)C(=O)C(C)C2N(CC3CCCN3C(=O)c3cn4ccccc4n3)C(=O)OC12C (stereo not shown) [10.54] | 64 µg/mL (≈ 76.2 µM) | <0.06 µg/mL | <0.06 µg/mL | 0.25 µg/mL (≈ 0.298 µM) | 1 µg/mL (≈ 1.19 µM) |
| CCC1OC(=O)C(C)C(=O)C(C)C(OC2OC(C)CC(N(C)C)C2O)C(C)(OC)CC(C)C(=O)C(C)C2N(CC3CCCN3C(=O)c3cc4cccnc4[nH]3)C(=O)OC12C (stereo not shown) [10.55] | 32 µg/mL (≈ 38.1 µM) | <0.06 µg/mL | <0.06 µg/mL | <0.06 µg/mL | 1 µg/mL (≈ 1.19 µM) |
| CCC1OC(=O)C(C)C(=O)C(C)C(OC2OC(C)CC(N(C)C)C2O)C(C)(OC)CC(C)C(=O)C(C)C2N(CC3CCN(Cc4cnc5ccccc5c4)C3)C(=O)OC12C (stereo not shown) [11.03] | 64 µg/mL (≈ 76.5 µM) | <0.06 µg/mL | <0.06 µg/mL | 0.5 µg/mL (≈ 0.597 µM) | 2 µg/mL (≈ 2.39 µM) |
| CCC1OC(=O)C(C)C(=O)C(C)C(OC2OC(C)CC(N(C)C)C2O)C(C)(OC)CC(C)C(=O)C(C)C2N(CC3CCN(Cc4ccc5ccccc5n4)C3)C(=O)OC12C (stereo not shown) [11.04] | 64 µg/mL (≈ 76.5 µM) | <0.06 µg/mL | <0.06 µg/mL | 0.12 µg/mL (≈ 0.143 µM) | 1 µg/mL (≈ 1.19 µM) |
| CCC1OC(=O)C(C)C(=O)C(C)C(OC2OC(C)CC(N(C)C)C2O)C(C)(OC)CC(C)C(=O)C(C)C2N(CC3CCN(Cc4nc5ccccc5n4C)C3)C(=O)OC12C (stereo not shown) [11.06] | >64.00 µg/mL | <0.06 µg/mL | 2 µg/mL (≈ 2.38 µM) | 2 µg/mL (≈ 2.38 µM) | 4 µg/mL (≈ 4.76 µM) |
| CCC1OC(=O)C(C)C(=O)C(C)C(OC2OC(C)CC(N(C)C)C2O)C(C)(OC)CC(C)C(=O)C(C)C2N(CC3CCN(Cc4ccc(OC)nc4)C3)C(=O)OC12C (stereo not shown) [11.07] | 16 µg/mL (≈ 19.6 µM) | <0.06 µg/mL | <0.06 µg/mL | 0.25 µg/mL (≈ 0.306 µM) | 1 µg/mL (≈ 1.22 µM) |
| CCC1OC(=O)C(C)C(=O)C(C)C(OC2OC(C)CC(N(C)C)C2O)C(C)(OC)CC(C)C(=O)C(C)C2N(CC3CCN(Cc4cccc(OC)n4)C3)C(=O)OC12C (stereo not shown) [11.08] | >64.00 µg/mL | <0.06 µg/mL | <0.06 µg/mL | 0.25 µg/mL (≈ 0.306 µM) | 0.5 µg/mL (≈ 0.612 µM) |
| CCC1OC(=O)C(C)C(=O)C(C)C(OC2OC(C)CC(N(C)C)C2O)C(C)(OC)CC(C)C(=O)C(C)C2N(CC3CCN(Cc4cccnc4OC)C3)C(=O)OC12C (stereo not shown) [11.09] | >64.00 µg/mL | <0.06 µg/mL | 4 µg/mL (≈ 4.9 µM) | 16 µg/mL (≈ 19.6 µM) | 4 µg/mL (≈ 4.9 µM) |
| CCC1OC(=O)C(C)C(=O)C(C)C(OC2OC(C)CC(N(C)C)C2O)C(C)(OC)CC(C)C(=O)C(C)C2N(CC3CCN(Cc4nccc5ccccc45)C3)C(=O)OC12C (stereo not shown) [11.10] | 64 µg/mL (≈ 76.5 µM) | <0.06 µg/mL | <0.06 µg/mL | <0.06 µg/mL | 0.12 µg/mL (≈ 0.143 µM) |
